Data: US12257264B2, “Combination therapy for HIV with adenosine derivative and capsid inhibitors” (Brii Biosciences, Inc., priority 2021, dated 2025)

Experiment: Plasma exposures following IV infusion alone or in combination to Sprague-Dawley rats
Settings: for concentration at 0.25 h: 0.250 hrs; for concentration at 0.5 h: 0.500 hrs
Protocol: The pharmacokinetics of EFdA and prodrug formula 4-A, as well as lenacapavir were studied in rats after IV infusion administration alone or in combination at a dose of 1.0 mg/kg each.
Formulations: The prodrugs and lenacapavir were formulated alone or in combination as solutions at 1.0 mg/mL each in 20% […], 10% Solutol aqueous solution within 0.5 hour prior to dose.
Dose Administration and Sample Collection: The in-life phase of this study was conducted at the WuXi Apptec (WuXi) at Shanghai, China in accordance with the WuXi Institutional Animal Care and Use Committee (IACUC) standard animal procedures along with the IACUC guidelines that are in compliance with the Animal Welfare Act, the Guide for the Care and Use of Laboratory Animals. and was approved by the IACUA Committee. Male Sprague-Dawley rats (0.262+/−0.019 kg) were used for the studies. Each drug was administered as a single dose by 30-min IV infusion (1 ml/kg) alone or in combination. Plasma samples were collected at 0 (pre-dose), 5, 10, 15 and 30 min, 1, 2, 4, 7, 12 and 24 h post-dose. Blood (approximately 0.1 mL) was processed immediately for plasma by centrifugation at 3,200 g at 4° C. for 10 min within half an hour of collection. Plasma samples were frozen and maintained at −70° C. until analyzed. To stabilize the prodrug at the sample collection and subsequent analysis, the following stabilizing reagents were added to the blood collection K2EDTA tubes on wet ice prior to sample collection: for each 100 mL of blood, 10 mL of premade inhibitor cocktail consists of 600 mM Citric Acid, 400 mM PMSF, 400 mM NaF, and 400 mM Dichlorvos.
Determination of EFdA and Prodrugs in plasma: Briefly, plasma (20 μL) was mixed with 100 l acetonitrile to precipitate protein. Consistent with sample collection procedure, the same cocktail protocol was also added to stabilize the prodrug in the standard and QC samples.
Bioanalysis: A Sciex API-6500 Plus triplequadrupole mass spectrometer coupled with a Waters Acquity UPLC system (Framingham, MA 01701) was used for quantitative analysis of plasma samples. The column was a Waters HSS T3 column (2.1×50 mm, 1.8 micrometer). The mobile phases used were: A, 0.1% formic acid in water; B, 0.1% formic acid in acetonitrile. For the analysis of EFdA and prodrugs in plasma, the flow rate was 0.6 mL/min with a total run time of 2.0 min. […] Detection of the prodrug and EFdA were achieved using positive ion electrospray mass spectroscopic mode using unit resolution mode. Multiple reaction monitoring (MRM) modes were used to quantify both prodrug and EFdA, e.g. the MRM transition for EFdA was 294.0-154.2 Da, and the transition for prodrug 4-A was 449.3-164.9 Da. For the analysis of lenacapavir in plasma, the flow rate was 0.7 mL/min with a total run time of 1.5 min. The HPLC gradient was initiated at 95% A/5% B for 0.50 min, followed by linear gradient increase to […] over the next 0.2 min; the gradient was subsequently maintained at 100% of mobile B over the next 0.7 min before ramping down to 95% mobile phase A within the following 0.1 min. Detection of lenacapavir was achieved using positive ion electrospray mass spectroscopic mode using unit resolution mode. Multiple reaction monitoring (MRM) modes were used to quantify lenacapavir, e.g. the MRM transition for lenacapavir was 968.1-869.4 Da. Peak areas were integrated by the Sciex program Analyst®, version 1.6.3, operating on a Windows 7 computer where concentrations were determined by a weighted (1/x2) linear regression of peak area ratios (peak area of EFdA/peak area of corresponding IS) versus the nominal concentrations of the plasma calibration standards. Calculations were performed on unrounded numbers. Overall, Analyst® determined the precision and accuracy for the calibration standards and QC samples.

[1] = male, Sprague-Dawley, rat, in vivo, 1 mg/kg, Lenacapavir Concentrations in Rat Plasma When Dosed Alone, Lenacapavir IV infusion 1.0 mg/kg alone, individual animals
[2] = male, Sprague-Dawley, rat, in vivo, 1 mg/kg, Lenacapavir Concentrations in Rat Plasma When Dosed Alone, Lenacapavir IV infusion 1.0 mg/kg alone, Mean
[3] = male, Sprague-Dawley, rat, in vivo, Lenacapavir Concentrations in Rat Plasma When Dosed with Prodrug formula 4-A, Lenacapavir IV infusion 1.0 mg/kg with Prodrug formula 4-A, Mean
[4] = male, Sprague-Dawley, rat, in vivo, iv, 1 mg/kg

concentration at 0.25 h [1]: 796 ng/mL | concentration at 0.5 h [2]: 789 ng/mL | concentration at 0.5 h [1]: 980 ng/mL | concentration at 1 h [2]: 222 ng/mL | concentration at 1 h [1]: 261 ng/mL | concentration at 2 h [2]: 150 ng/mL | concentration at 2 h [1]: 181 ng/mL | concentration at 4 h [2]: 156 ng/mL | concentration at 4 h [1]: 171 ng/mL | concentration at 7 h [2]: 138 ng/mL | concentration at 12 h [2]: 117 ng/mL | concentration at 12 h [1]: 145 ng/mL | concentration at 24 h [2]: 136 ng/mL | concentration at 24 h [1]: 141 ng/mL | concentration at 72 h [2]: 69.6 ng/mL | concentration at 0.083 h (male, Sprague-Dawley, rat, in vivo, Lenacapavir Concentrations in Rat Plasma When Dosed with Prodrug formula 4-A, Lenacapavir IV infusion 1.0 mg/kg with Prodrug formula 4-A, 0.0830 hrs, Mean): 413 ng/mL | concentration at 0.167 h (male, Sprague-Dawley, rat, in vivo, Lenacapavir Concentrations in Rat Plasma When Dosed with Prodrug formula 4-A, Lenacapavir IV infusion 1.0 mg/kg with Prodrug formula 4-A, 0.167 hrs, Mean): 507 ng/mL | concentration at 0.25 h [3]: 590 ng/mL | concentration at 0.5 h [3]: 645 ng/mL | concentration at 1 h [3]: 162 ng/mL | concentration at 2 h [3]: 127 ng/mL | concentration at 4 h [3]: 93.5 ng/mL | concentration at 7 h [3]: 93 ng/mL | concentration at 12 h [3]: 128 ng/mL | concentration at 24 h [3]: 133 ng/mL | concentration at 72 h [3]: 83.3 ng/mL | AUC [4]: 7980 ng·h/mL | Cmax [4]: 903 ng/mL | Pharmacokinetic profile of lenacapavir on co-administration of prodrugs, e.g. formula 4-A (rats, IV infusion): not affected
Compound: CC(C)(C#Cc1ccc(-c2ccc(Cl)c3c(NS(C)(=O)=O)nn(CC(F)(F)F)c23)c([C@H](Cc2cc(F)cc(F)c2)NC(=O)Cn2nc(C(F)(F)F)c3c2C(F)(F)[C@@H]2C[C@H]32)n1)S(C)(=O)=O [Lenacapavir, reference compound]
